Source: US5516756A, “Aza cyclohexapeptide compounds” (Merck & Co., Inc., priority 1994, dated 1996)
≈ marks a conversion by molar mass, not a printed value.

Columns and labels:
Candida albicans MY 1055 = test: In vivo effectiveness: kidney CFU in mice infected I.V. with Candida albicans; conditions: 0.07 mg/kg i.p. twice daily for four consecutive days; female DBA/2 mice; CFU per gram of kidneys after seven days
Experimental: The in vivo effectiveness of the compounds against fungi may be seen in the following assay.
Growth from an overnight SDA culture of Candida albicans MY 1055 was suspended in sterile saline and the cell concentration determined by hemacytometer count and the cell suspension adjusted to 3.75×10^5 cells/ml. Then 0.2 milliliter of this suspension was administered I.V. in the tail vein of mice so that the final inoculum is 7.5×10^4 cells/mouse.
The assay was then carried out by administering aqueous solutions of Compound I at various concentrations intraperitoneally (I.P.), twice daily (b.i.d.) for four consecutive days to 18 to 20 gram female DB A/2 mice, which previously had been infected with Candida albicans (MY 1055) in the manner described above. Distilled water was administered I.P. to C. albicans challenged mice as controls. After seven days, the mice were sacrificed by carbon dioxide gas, paired kidneys were removed aseptically and placed in sterile polyethylene bags containing 5 milliliters of sterile saline. The kidneys were homogenized in the bags, serially diluted in sterile saline and aliquots spread on the surface of SDA plates. The plates were incubated at 35° C. for 48 hours and yeast colonies enumerated for determination of colony forming units (CFU) per gram of kidneys. […]

[1] = tested on: Candida tropicalis (MY 1012); assay type: cell-based; conditions: MY 1012, 24 h
Experimental: (§1) The compounds of the present invention are active against many fungi and particularly against Candida species. The antifungal properties may be illustrated with the minimum fungicidal concentration (MFC) determination against certain Candida organisms in a microbroth dilution assay carded out in a Yeast Nitrogen Base (DIFCO) medium with 1% dextrose (YNBD).
(§2) In a representative assay, compounds were solubilized in 100% dimethyl sulfoxide (DMSO) at an initial concentration of 5 mg/ml. Once dissolved, the drug stock was brought to a concentration of 512 μg/ml by dilution in water such that the final DMSO concentration was about 10 percent. The solution was then dispensed via a multichannel pipetter into the first column of a 96-well plate (each well containing 0.075 ml of YNBD), resulting in a drug concentration of 256 μg/ml. Compounds in the first column were diluted 2-fold across the rows yielding final drug concentration ranging from 256 μg/ml to 0.12 μg/ml.
(§3) Four-hour broth cultures of organisms to be tested were adjusted using a spectrophotometer at 600 nm to equal a 0.5 McFarland Standard. This suspension was diluted 1:100 in YNBD to yield a cell concentration of 1-5×10^4 colony forming units (CFU)/ml. Aliquots of the suspension (0.075 ml) were inoculated into each well of the microtiter plate resulting in a final cell inoculum of 5-25×10^3 CFU/ml and final drug concentrations ranging from 128 μg/ml to 0.06 μg/ml. Each assay included one row for drug-free control wells and one row for cell-free control wells.
(§4) After 24 hours of incubation, the microtiter plates were shaken gently on a shaker to resuspend the cells. The MIC-2000 inoculator was used to transfer a 1.5 microliter sample from each well of the 96-well microtiter plate to a single reservoir inoculum plate containing Sabouraud dextrose agar (SDA). The inoculated SDA plates were incubated for 24 hours at 35° C. and then read for minimum fungicidal concentration (MFC). MFC is defined as the lowest concentration of drug showing no growth or less than 4 colonies per spot. […]

[2] = tested on: Candida albicans (MY 1055); assay type: cell-based; conditions: MY 1055, 24 h
Experimental: as §1, §2, §3, §4

[3] = tested on: Candida parapsilosis (MY 1010); assay type: cell-based; conditions: MY 1010, 24 h
Experimental: as §1, §2, §3, §4

SMILES: CCC(C)CC(C)CCCCCCCCC(=O)N[C@H]1C[C@@H](O)[C@@H](NC(=O)[C@@H](N)CN)NC(=O)[C@@H]2[C@@H](O)CCN2C(=O)[C@H]([C@H](O)CCN)NC(=O)[C@H]([C@H](O)[C@@H](O)c2ccc(O)cc2)NC(=O)[C@@H]2C[C@@H](O)CN2C(=O)[C@H]([C@@H](C)O)NC1=O (stereo partly shown) [Compound I]
- reduction of recoverable Candida CFUs (Candida albicans MY 1055): greater than 99%
- minimum fungicidal concentration (MFC) [1]: 1 µg/mL (≈ 0.88 µM)
- minimum fungicidal concentration (MFC) [2]: 1 µg/mL (≈ 0.88 µM)
- minimum fungicidal concentration (MFC) [3]: 0.5 µg/mL (≈ 0.44 µM)
